Data set [1] can be described thus: Solubility in water and in 40% (w/v) HPBCD solution by UV absorbance. It is filed as physicochemical. How it is done: To determine solubilities, test compounds were first dissolved in ethanol to prepare standard solutions with concentrations in the range 2.5–10 mg/ml, then were diluted with to 10 μg/ml with water. UV scans were obtained of the 10 μg/ml standard solutions, and the wavelength of maximum absorbance and the absorbance at the maximum absorbance wavelength were determined. For each test compound 50 μl aliquots of water and of 40% HPBCD were added to individual Eppendorf tubes containing approximately 1 mg of compound each. The tubes were heated in a 30° C. waterbath, vortexed, then centrifuged at 15,000 rpm for 5 min. This step was repeated, then the tubes were cooled to room temperature for 1 hour, then were centrifuged again. The supernatant from each tube was diluted with water into the appropriate absorbance range, and the UV absorbance was measured at the compound's absorbance maximum wavelength. The concentrations of these saturated solutions were then calculated by ratio to the 10 μg/ml ethanolic standard solutions.

A further data set has as its system MCF-7. The data set can be described thus: MTS growth inhibition assay. Conditions: MCF-7 breast, read-out: Growth inhibitory activity (50% effective concentration, IC50). It is filed as cell-based, human. The method, then: (§1) A2780 and A2780/CP (ovarian); MCF-7 (breast); HT-29 (colon); BxPC-3 (pancreas); and A549 (lung). The human tumor cell lines (purchased from ATCC, Rockville, Md.) were cultured at 37° C. […] Nova Tech, Grand Island, N.Y.) containing 10% fetal bovine serum (FBS, Nova Tech). Aliquots of cells were seeded into each well of 96-well microtiter plates at a final concentration of 10^4 cells/well and incubated for 24 h prior to exposure to test compounds. […] The MTS assay is a colorimetric assay based upon the ability of viable cells to convert MTS, a novel tetrazolium compound and electron-coupling reagent, to a colored formazan product that is soluble in cell culture medium. The cell concentration is then determined by measuring the absorbance of the formazan product at 490 nm. Growth inhibition, expressed as IC50, is calculated relative to vehicle-treated control cells.

The next data set has as its system A2780. Description: MTS growth inhibition assay. It counts as cell-based, human. The settings on record: A2780 (sensitive) ovarian, read-out: Growth inhibitory activity (50% effective concentration, IC50). The method, then:
as §1

Another data set deals with BxPC-3. The data set can be described thus: MTS growth inhibition assay. Conditions: BxPC-3 pancreas, read-out: Growth inhibitory activity (50% effective concentration, IC50). It is filed as cell-based, human. The method, then:
as §1

The subject of the next data set is HT-29. The data set can be described thus: MTS growth inhibition assay. The settings on record: HT-29 colon, read-out: Growth inhibitory activity (50% effective concentration, IC50). It counts as cell-based, human. The method, then: as §1
The next data set deals with A549. The data set can be described thus: MTS growth inhibition assay. It is filed as cell-based, human. Conditions: A549 lung, read-out: Growth inhibitory activity (50% effective concentration, IC50). The method, then: as §1
A further data set deals with A2780CP. The data set can be described thus: MTS growth inhibition assay. It counts as cell-based, human. The settings on record: A2780CP (resistant) ovarian, read-out: Growth inhibitory activity (50% effective concentration, IC50). The method, then:
as §1

Data set [2] deals with six human cancer cells lines. The data set can be described thus: MTS growth inhibition assay, summary over all lines. It is filed as cell-based. Conditions: all six tumor cell lines; tested up to 20 μM. The method, then:
A2780 and A2780/CP (ovarian); MCF-7 (breast); HT-29 (colon); BxPC-3 (pancreas); and A549 (lung). The human tumor cell lines (purchased from ATCC, Rockville, Md.) were cultured at 37° C. (5% CO2) in RPMI medium (RPMI; Nova Tech, Grand Island, N.Y.) containing 10% fetal bovine serum (FBS, Nova Tech). Aliquots of cells were seeded into each well of 96-well microtiter plates at a final concentration of 10^4 cells/well and incubated for 24 h prior to exposure to test compounds. […] The MTS assay is a colorimetric assay based upon the ability of viable cells to convert MTS, a novel tetrazolium compound and electron-coupling reagent, to a colored formazan product that is soluble in cell culture medium. The cell concentration is then determined by measuring the absorbance of the formazan product at 490 nm. Growth inhibition, expressed as IC50, is calculated relative to vehicle-treated control cells.

[3] abbreviates: Exp 1, 4 h treatment + 24 h drug-free.
The mark [4] stands for this setting: Exp 2, 4 h treatment + 24 h drug-free.
[5] abbreviates: Exp 3, 4 h treatment + 24 h drug-free.

Values after ≈ are worked out from the molar mass of the structure shown. Read-outs that look alike come from different tables or passages of the source.

The source of these data is patent publication US7074824B2, “Pharmaceutical compositions containing beta-lapachone, or derivatives or analogs thereof, and methods of using same” (Arqule, Inc., priority 2001, dated 2006).

As for `CC1(C)C=CC2=C(O1)c1ccccc1C(=O)C2=O` [3,4-dehydro-βL], in data set [1], the “Solubility Enhancement” value was 240 −Fold, the “Solubility in HPBCD Solution” value was found to be 5.8 mg/mL (≈ 24.1 mM) and the “Solubility in Water” value is 24 µg/mL (≈ 0.0999 mM).
As for `CC(C)=CCC1CC2=C(OC1(C)C)c1ccccc1C(=O)C2=O` (stereo not drawn) [3-(3-methyl-2-butenyl)-βL], in data set [1], the “Solubility Enhancement” value was 61 −Fold, the “Solubility in HPBCD Solution” value is 4.1 mg/mL (≈ 13.2 mM) and the “Solubility in Water” value amounted to 67 µg/mL (≈ 0.216 mM).
With `CC1(C)CC(=O)C2=C(O1)c1ccccc1C(=O)C2=O` [CO-505], the IC50 in the data set with MCF-7 (Exp 1), in the data set on MCF-7 (Exp 2), in the data set with MCF-7 (Exp 3), with MCF-7 (Mean ± SE of 3 experiments), in the data set with A2780 (setting [3]) and in the data set on A2780 (setting [4]) was greater than 20 µM each time. Moreover, the IC50 in the data set on A2780 (setting [5]), in the data set on A2780 (Mean ± SE of 3 experiments), in the data set with BxPC-3 (Exp 1), in the data set with BxPC-3 (Exp 2), with BxPC-3 (Exp 3) and in the data set with BxPC-3 (Mean ± SE of 3 experiments) was greater than 20 µM throughout. Besides, the IC50 with HT-29 (Exp 1), in the data set on HT-29 (Exp 2), with HT-29 (Exp 3), with HT-29 (Mean ± SE of 3 experiments), in the data set with A549 (Exp 1) and with A549 (Exp 2) was greater than 20 µM in each case. Moreover, the IC50 in the data set on A549 (Exp 3), in the data set with A549 (Mean ± SE of 3 experiments), in the data set with A2780CP (Exp 1), in the data set on A2780CP (Exp 2), with A2780CP (Exp 3) and with A2780CP (Mean ± SE of 3 experiments) was greater than 20 µM each time. In addition, the “growth inhibitory activity, verbal summary” value (shortened to “growth inhibitory activity”) in data set [2] is “inactive”.
With `CC1OC2=C(C(=O)C(=O)c3ccccc32)C1(C)C` (stereo not drawn) [CO-506], the IC50 was found to be 2.64 µM with MCF-7 (Exp 1); 3.99 µM in the data set on MCF-7 (Exp 2); 3.53 µM with MCF-7 (Exp 3); 3.39 ± 0.4 µM in the data set on MCF-7 (Mean ± SE of 3 experiments); 2.47 µM in the data set with A2780 (setting [3]); 4.79 µM in the data set on A2780 (setting [4]). Moreover, the IC50 amounted to 3.23 µM in the data set on A2780 (setting [5]); 3.5 ± 0.68 µM in the data set on A2780 (Mean ± SE of 3 experiments); 5.69 µM in the data set with BxPC-3 (Exp 1); 8.4 µM with BxPC-3 (Exp 2); 9.22 µM in the data set on BxPC-3 (Exp 3); 7.77 ± 1.07 µM in the data set on BxPC-3 (Mean ± SE of 3 experiments). The IC50 in the data set on HT-29 (Exp 1) was determined as 17.3 µM; in the data set on HT-29 (Exp 2) it was 13.4 µM; in the data set on HT-29 (Exp 3), 11.2 µM; in the data set on HT-29 (Mean ± SE of 3 experiments), 14 ± 1.78 µM; in the data set on A549 (Exp 1), 7.5 µM; in the data set on A549 (Exp 2), 12.7 µM. The IC50 in the data set on A549 (Exp 3) came out at 15.3 µM; in the data set with A549 (Mean ± SE of 3 experiments) it was 11.8 ± 2.28 µM; with A2780CP (Exp 1) it was 2.73 µM; with A2780CP (Exp 2), 3.85 µM; in the data set with A2780CP (Exp 3), 1.53 µM; in the data set with A2780CP (Mean ± SE of 3 experiments), 2.7 ± 0.67 µM. Moreover, the “growth inhibitory activity” value in data set [2] is “activity profile similar to CO-501”.
Regarding `CCCCCC(=O)OC1=CC(=O)C(=O)c2ccccc21` [CO-507, 4-hexanoyloxy-1,2-naphthoquinone], the IC50 in the data set on MCF-7 (Homo sapiens, MCF7, Exp 1) is greater than 20 µM; in the data set on MCF-7 (Exp 2), greater than 20 µM; in the data set with MCF-7 (Exp 3), greater than 20 µM; with MCF-7 (Mean ± SE of 3 experiments), greater than 20 µM; with A2780 (setting [4]), greater than 20 µM; in the data set on A2780 (setting [5]), greater than 20 µM. Besides, the IC50 in the data set on A2780 (Mean ± SE of 3 experiments) is greater than 20 µM; with A2780 (Homo sapiens, Exp 1, 4 h treatment + 24 h drug-free) it was greater than 20 µM; in the data set on BxPC-3 (Exp 2), greater than 20 µM; with BxPC-3 (Exp 3) it was greater than 20 µM; in the data set on BxPC-3 (Mean ± SE of 3 experiments), greater than 20 µM; in the data set with BxPC-3 (Homo sapiens, Exp 1) it was greater than 20 µM. Further, the IC50 with HT-29 (Exp 2) was greater than 20 µM; with HT-29 (Exp 3) it was greater than 20 µM; in the data set with HT-29 (Mean ± SE of 3 experiments), greater than 20 µM; in the data set on HT-29 (Homo sapiens, Exp 1), greater than 20 µM; in the data set with A549 (Exp 2), greater than 20 µM; with A549 (Exp 3), greater than 20 µM. In addition, the IC50 with A549 (Mean ± SE of 3 experiments) is greater than 20 µM; in the data set with A549 (Homo sapiens, Exp 1), greater than 20 µM; in the data set with A2780CP (Exp 2) it was greater than 20 µM; with A2780CP (Exp 3), greater than 20 µM; in the data set on A2780CP (Mean ± SE of 3 experiments), greater than 20 µM; in the data set on A2780CP (Homo sapiens, A2780C/P, Exp 1), greater than 20 µM. For the same compound, the “growth inhibitory activity” value in data set [2] was “inactive”.
As for `CC1(C)OC2=C(CC1Br)C(=O)C(=O)c1ccccc12` (stereo not drawn) [Compound 3-Bromo-βL, 3-Bromo-βL], in data set [1], the “Solubility Enhancement” value is 191 −Fold, the “Solubility in HPBCD Solution” value is 6.9 mg/mL (≈ 21.5 mM) and the “Solubility in Water” value is 36 µg/mL (≈ 0.112 mM).
As for `CC1(C)OC2=C(CC1O)C(=O)C(=O)c1ccccc12` (stereo not drawn) [Compound 3-Hydroxy-βL, 3-Hydroxy-βL], in data set [1], the “Solubility Enhancement” value is reported as 10.6 −Fold, the “Solubility in HPBCD Solution” value is 14.6 mg/mL (≈ 56.5 mM) and the “Solubility in Water” value was 1381 µg/mL (≈ 5.35 mM).
On the same counts, the results for `CC1(C)CC(=O)C2=C(O1)c1ccccc1C(=O)C2=O` [Compound 4-keto-βL, 4-keto-βL] are 8.7 −Fold, 4.4 mg/mL (≈ 17.2 mM) and 503 µg/mL (≈ 1.96 mM).
In the case of `CC1OC2=C(C(=O)C(=O)c3ccccc32)C1(C)C` (stereo not drawn) [Dunnione], in data set [1], the “Solubility Enhancement” value is reported as 36 −Fold, the “Solubility in HPBCD Solution” value was 17.0 mg/mL (≈ 70.2 mM) and the “Solubility in Water” value is 476 µg/mL (≈ 1.96 mM).
